The term IC50 denotes the concentration at which inhibition is half-maximal. One may read the inhibition as the percentage by which the read-out fell short of the control.

The first data set has as its system K562. The experiment in a line: Antitumor activity against human K562 cells. Type of data set: functional, cell-based.
Conditions: not given
Molecule `CC1(C)CCc2cc(/C=C3\OC(=O)C=C3c3ccc(O)cc3)ccc2O1` gave an IC50 of 10100 nM.

The molecule `CC(C)=CCc1cc(/C=C2\OC(=O)C=C2c2ccc(O)cc2)ccc1O` showed an IC50 of 12800 nM.

In a further data set the test system is HT-29. Description: Antitumor activity against human HT-29 cells.
Conditions: not given
The data set is classed as functional, cell-based.
Molecule `O=C1O/C(=C\c2ccc(O)c(Br)c2)C(c2ccc(O)cc2)=C1Cl` gave an IC50 of 3100 nM.

With `O=C1O/C(=C\c2ccc(O)c(Br)c2)C(c2ccc(O)c(Br)c2)=C1Cl`, the IC50 is 2600 nM.

Turning to `O=C1O/C(=C\c2cc(Br)c(O)c(Br)c2)C(c2cc(Br)c(O)c(Br)c2)=C1Cl`, the IC50 is 8000 nM.

Another data set concerns P388. The experiment in a line: Antitumor activity against mouse P388 cells.
Conditions: not given
Type of data set: functional, cell-based.
Molecule `O=C1O/C(=C\c2ccc(O)c(Br)c2)C(c2ccc(O)cc2)=C1Cl` showed a half-inhibitory concentration (IC50) of 3100 nM.

For `O=C1O/C(=C\c2cc(Br)c(O)c(Br)c2)C(c2cc(Br)c(O)c(Br)c2)=C1Cl`, half-maximal inhibition (IC50) was put at 8000 nM.

In another data set the test system is A549. The experiment in a line: Antitumor activity against human A549 cells. The data set is classed as functional, cell-based.
Conditions: not given
Regarding `O=C1O/C(=C\c2ccc(O)c(Br)c2)C(c2ccc(O)cc2)=C1Cl`, it took 3100 nM to reach half-maximal inhibition (IC50).

On to `O=C1O/C(=C\c2cc(Br)c(O)c(Br)c2)C(c2cc(Br)c(O)c(Br)c2)=C1Cl`, for which 8000 nM corresponded to half-maximal inhibition (IC50).

A further data set relates to U-87 MG. Description: Cytotoxicity against human U-87 MG cells assessed as survival rate at 10 uM measured after 72 hrs by MTT assay relative to control. To be noted: read-out: Survival. The data set is classed as functional, U-87MG ATCC.
Consider `O=C1C=C(c2ccccc2)/C(=C/c2ccc(O)cc2)O1`, for which the viability at 10 µM is 92.4%.

As to `COc1ccc(/C=C2\OC(=O)C=C2c2ccccc2)cc1`, the viability at 10 µM was determined as 91.2%.

With `COc1ccc(C2=CC(=O)O/C2=C\c2ccc3[nH]ccc3c2)cc1`, the viability at 10 µM is 39.5%.

On to `COc1ccc(C2=CC(=O)O/C2=C\c2ccc(O)c(OC)c2)cc1`, for which the viability at 10 µM was 37.8%.

For `COc1ccc(C2=CC(=O)O/C2=C\c2ccc(N(C)C)cc2)cc1`, the viability at 10 µM turned out to be 101%.

As to `COc1ccc(C2=CC(=O)O/C2=C\c2ccc(C)cc2)cc1`, the viability at 10 µM was 94.1%.

With `COc1ccc(C2=CC(=O)O/C2=C\c2ccc(C(C)C)cc2)cc1`, the viability at 10 µM turned out to be 97.4%.

Turning to `COc1ccc(C2=CC(=O)O/C2=C\c2ccc(C(=O)O)c(O)c2)cc1`, the viability at 10 µM stood at 106%.

The test system of another data set is HCT-116. The experiment in a line: Cytotoxicity against human HCT-116 cells assessed as survival rate at 10 uM measured after 72 hrs by MTT assay relative to control. Type of data set: functional. To be noted: read-out: Survival.
Consider `O=C1C=C(c2ccccc2)/C(=C/c2ccc(O)cc2)O1`, for which the viability at 10 µM stood at 87.7%.

In the case of `COc1ccc(/C=C2\OC(=O)C=C2c2ccccc2)cc1`, the viability at 10 µM worked out at 113%.

`COc1ccc(C2=CC(=O)O/C2=C\c2ccc3[nH]ccc3c2)cc1`: the viability at 10 µM came to 23.9%.

With `COc1ccc(C2=CC(=O)O/C2=C\c2ccc(O)c(OC)c2)cc1`, the viability at 10 µM was found to be 24.1%.

Take `COc1ccc(C2=CC(=O)O/C2=C\c2ccc(N(C)C)cc2)cc1`: the viability at 10 µM was determined as 87.2%.

Consider `COc1ccc(C2=CC(=O)O/C2=C\c2ccc(C)cc2)cc1`, for which the viability at 10 µM was 87.3%.

Take `COc1ccc(C2=CC(=O)O/C2=C\c2ccc(C(C)C)cc2)cc1`: the viability at 10 µM was 85.9%.

For the molecule `COc1ccc(C2=CC(=O)O/C2=C\c2ccc(C(=O)O)c(O)c2)cc1`, the viability at 10 µM was 62.8%.

The next data set relates to MCF7. The experiment in a line: Cytotoxicity against human MCF7 cells assessed as survival rate at 10 uM measured after 72 hrs by MTT assay relative to control. Type of data set: functional. As to conditions: read-out: Survival. Background: Formazan colour is commonly taken as a measure of viable cells.
In the case of `O=C1C=C(c2ccccc2)/C(=C/c2ccc(O)cc2)O1`, the viability at 10 µM turned out to be 87.1%.

For `COc1ccc(/C=C2\OC(=O)C=C2c2ccccc2)cc1`, the viability at 10 µM came to 82.9%.

For `COc1ccc(C2=CC(=O)O/C2=C\c2ccc3[nH]ccc3c2)cc1`, the viability at 10 µM was found to be 25.8%.

For `COc1ccc(C2=CC(=O)O/C2=C\c2ccc(O)c(OC)c2)cc1`, the viability at 10 µM was found to be 25.2%.

On to `COc1ccc(C2=CC(=O)O/C2=C\c2ccc(N(C)C)cc2)cc1`, for which the viability at 10 µM came out at 92.2%.

`COc1ccc(C2=CC(=O)O/C2=C\c2ccc(C)cc2)cc1`: the viability at 10 µM came out at 101%.

Turning to `COc1ccc(C2=CC(=O)O/C2=C\c2ccc(C(C)C)cc2)cc1`, the viability at 10 µM was found to be 102%.

Consider `COc1ccc(C2=CC(=O)O/C2=C\c2ccc(C(=O)O)c(O)c2)cc1`, for which the viability at 10 µM came out at 40.7%.

The next data set deals with U-87 MG. Description: Cytotoxicity against human U-87 MG cells assessed as inhibition of cell growth at 10 uM measured after 72 hrs by MTT assay relative to control.
Conditions: not given
Type of data set: functional, U-87MG ATCC.
Regarding `COc1ccc(C2=CC(=O)O/C2=C\c2ccc3[nH]ccc3c2)cc1`, the inhibition at 10 µM was > 50%.

For the molecule `COc1ccc(C2=CC(=O)O/C2=C\c2ccc(O)c(OC)c2)cc1`, the inhibition at 10 µM is > 50%.

In a further data set the test system is HCT-116. The experiment in a line: Cytotoxicity against human HCT-116 cells assessed as inhibition of cell growth at 10 uM measured after 72 hrs by MTT assay relative to control. The data set is classed as functional.
Conditions: not given
`COc1ccc(C2=CC(=O)O/C2=C\c2ccc3[nH]ccc3c2)cc1`: the inhibition at 10 µM was > 50%.

Turning to `COc1ccc(C2=CC(=O)O/C2=C\c2ccc(O)c(OC)c2)cc1`, the inhibition at 10 µM was > 50%.

For the next data set, the system named is MGC-803. Description: Cytotoxicity against human MGC-803 cells assessed as inhibition of cell growth at 10 uM measured after 72 hrs by MTT assay relative to control. The data set is classed as functional.
Conditions: not given
On to `COc1ccc(C2=CC(=O)O/C2=C\c2ccc3[nH]ccc3c2)cc1`, for which the inhibition at 10 µM is > 50%.

On to `COc1ccc(C2=CC(=O)O/C2=C\c2ccc(O)c(OC)c2)cc1`, for which the inhibition at 10 µM is > 50%.

A further data set has as its system MCF7. The experiment in a line: Cytotoxicity against human MCF7 cells assessed as inhibition of cell growth at 10 uM measured after 72 hrs by MTT assay relative to control. Type of data set: functional.
Conditions: not given
Regarding `COc1ccc(C2=CC(=O)O/C2=C\c2ccc3[nH]ccc3c2)cc1`, the inhibition at 10 µM is > 50%.

With `COc1ccc(C2=CC(=O)O/C2=C\c2ccc(O)c(OC)c2)cc1`, the inhibition at 10 µM is > 50%.

The next data set has as its system MKN-45. The experiment in a line: Cytotoxicity against human MKN-45 cells assessed as inhibition of cell growth at 10 uM measured after 72 hrs by MTT assay relative to control. The data set is classed as functional.
Conditions: not given
`COc1ccc(C2=CC(=O)O/C2=C\c2ccc3[nH]ccc3c2)cc1`: the inhibition at 10 µM was > 50%.

Turning to `COc1ccc(C2=CC(=O)O/C2=C\c2ccc(O)c(OC)c2)cc1`, the inhibition at 10 µM was > 50%.

In a further data set the test system is HeLa. Description: Cytotoxicity against human HeLa cells assessed as inhibition of cell growth at 10 uM measured after 72 hrs by MTT assay relative to control. The data set is classed as functional.
Conditions: not given
For `COc1ccc(C2=CC(=O)O/C2=C\c2ccc3[nH]ccc3c2)cc1`, the inhibition at 10 µM was > 50%.

`COc1ccc(C2=CC(=O)O/C2=C\c2ccc(O)c(OC)c2)cc1`: the inhibition at 10 µM was > 50%.

Another data set concerns HeLa. Description: Cytotoxicity against human HeLa cells assessed as inhibition of cell growth incubated for 72 hrs by MTT assay. Type of data set: functional, cell-based.
Conditions: not given
Regarding `COc1ccc(C2=CC(=O)O/C2=C\c2ccc3[nH]ccc3c2)cc1`, the IC50 is 200 nM.

In the case of `COc1ccc(C2=CC(=O)O/C2=C\c2ccc(O)c(OC)c2)cc1`, the IC50 came out at 600 nM.

The subject of another data set is HCT-116. The experiment in a line: Cytotoxicity against human HCT-116 cells assessed as inhibition of cell growth incubated for 72 hrs by MTT assay. The data set is classed as functional, cell-based. As to conditions: HCT-116, 72 h.
On to `COc1ccc(C2=CC(=O)O/C2=C\c2ccc3[nH]ccc3c2)cc1`, for which the IC50 turned out to be 300 nM.

As to `COc1ccc(C2=CC(=O)O/C2=C\c2ccc(O)c(OC)c2)cc1`, the IC50 was found to be 400 nM.

The test system of another data set is MGC-803. The experiment in a line: Cytotoxicity against human MGC-803 cells assessed as inhibition of cell growth incubated for 72 hrs by MTT assay. Type of data set: functional, cell-based. To be noted: MGC-803, 72 h.
In the case of `COc1ccc(C2=CC(=O)O/C2=C\c2ccc3[nH]ccc3c2)cc1`, the IC50 came out at 900 nM.

On to `COc1ccc(C2=CC(=O)O/C2=C\c2ccc(O)c(OC)c2)cc1`, for which the IC50 was 5400 nM.

The test system of a further data set is MCF7. The experiment in a line: Cytotoxicity against human MCF7 cells assessed as inhibition of cell growth incubated for 72 hrs by MTT assay. Type of data set: functional, cell-based. As to conditions: MCF7, 72 h.
As to `COc1ccc(C2=CC(=O)O/C2=C\c2ccc3[nH]ccc3c2)cc1`, the IC50 turned out to be 1300 nM.

As for `COc1ccc(C2=CC(=O)O/C2=C\c2ccc(O)c(OC)c2)cc1`, the IC50 stood at 100 nM.

The test system of the next data set is U-87 MG. The experiment in a line: Cytotoxicity against human U-87 MG cells assessed as inhibition of cell growth incubated for 72 hrs by MTT assay.
Conditions: not given
Type of data set: functional, cell-based, U-87MG ATCC.
In the case of `COc1ccc(C2=CC(=O)O/C2=C\c2ccc3[nH]ccc3c2)cc1`, the IC50 came out at 7800 nM.

`COc1ccc(C2=CC(=O)O/C2=C\c2ccc(O)c(OC)c2)cc1`: the IC50 worked out at 4500 nM.

Another data set deals with MKN-45. Description: Cytotoxicity against human MKN-45 cells assessed as inhibition of cell growth incubated for 72 hrs by MTT assay. The data set is classed as functional, cell-based. As to conditions: MKN-45, 72 h.
`COc1ccc(C2=CC(=O)O/C2=C\c2ccc3[nH]ccc3c2)cc1`: the IC50 worked out at 200 nM.

As to `COc1ccc(C2=CC(=O)O/C2=C\c2ccc(O)c(OC)c2)cc1`, the IC50 worked out at 300 nM.

Test system in the next data set: not listed separately
The experiment in a line: Cytotoxicity against HHL-5 cells assessed as inhibition of cell growth incubated for 72 hrs by MTT assay. To be noted: human. Type of data set: toxicity, cell-based.
With `COc1ccc(C2=CC(=O)O/C2=C\c2ccc3[nH]ccc3c2)cc1`, the IC50 at 72 h came to 1300 nM.

Turning to `COc1ccc(C2=CC(=O)O/C2=C\c2ccc(O)c(OC)c2)cc1`, the IC50 at 72 h was determined as 1900 nM.

(Values after ChEMBL document CHEMBL6078667, “Synthesis, Biological Evaluation, and Mechanistic Insights of Rubrolide Analogues as Antitumor Agents” (J Nat Prod, 2024).)
